Measured values as given in ChEMBL document CHEMBL1955725, “Structure-guided lead optimization of triazolopyrimidine-ring substituents identifies potent Plasmodium falciparum dihydroorotate dehydrogenase inhibitors with clinical candidate potential” (J Med Chem, 2011).
Values after ≈ are worked out from the molar mass of the structure shown.

Experiments:
Plasma = experiment: Plasma protein binding in human by chromatographic method; assay type: ADME, cell-free
Plasmodium falciparum [1] = experiment: Antimalarial activity against Plasmodium falciparum 3D7 by [3H]hypoxanthine incorporation assay in presence of human serum; assay type: functional, organism-based
[2] = Lipophilicity, log D of the compound at pH 7.4; assay type: physicochemical; settings: buffer
[3] = Inhibition of Plasmodium berghei C-terminal hexa-His tagged DHODH expressed in Escherichia coli by DCIP reduction assay
Liver = experiment: Intrinsic clearance in mouse liver microsomes; assay type: ADME, Microsome
[4] = target: Dihydroorotate dehydrogenase (quinone), mitochondrial (Homo sapiens, UniProt Q02127)
Sequence of Dihydroorotate dehydrogenase (quinone), mitochondrial (Q02127 whole entry): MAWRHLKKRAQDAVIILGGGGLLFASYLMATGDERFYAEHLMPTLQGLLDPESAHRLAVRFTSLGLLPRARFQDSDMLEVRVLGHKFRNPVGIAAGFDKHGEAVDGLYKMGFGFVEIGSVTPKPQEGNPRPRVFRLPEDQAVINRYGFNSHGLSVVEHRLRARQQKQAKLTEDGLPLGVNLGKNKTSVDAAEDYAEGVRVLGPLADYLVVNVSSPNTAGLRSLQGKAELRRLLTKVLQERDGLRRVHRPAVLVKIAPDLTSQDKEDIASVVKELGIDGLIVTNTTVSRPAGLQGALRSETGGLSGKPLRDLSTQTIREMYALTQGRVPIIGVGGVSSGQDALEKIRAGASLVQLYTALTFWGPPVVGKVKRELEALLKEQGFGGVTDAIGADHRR
Description: Inhibition of human C-terminal hexa-His tagged DHODH expressed in Escherichia coli by DCIP reduction assay

[5] = Aqueous solubility of the compound at pH 6.5; assay type: physicochemical
Liver microsomes = experiment: Intrinsic clearance in human liver microsomes; assay type: ADME, Microsome
[6] = target: T1, Dihydroorotate dehydrogenase (Plasmodium falciparum, UniProt Q54A96)
T1 sequence (Q54A96 whole entry): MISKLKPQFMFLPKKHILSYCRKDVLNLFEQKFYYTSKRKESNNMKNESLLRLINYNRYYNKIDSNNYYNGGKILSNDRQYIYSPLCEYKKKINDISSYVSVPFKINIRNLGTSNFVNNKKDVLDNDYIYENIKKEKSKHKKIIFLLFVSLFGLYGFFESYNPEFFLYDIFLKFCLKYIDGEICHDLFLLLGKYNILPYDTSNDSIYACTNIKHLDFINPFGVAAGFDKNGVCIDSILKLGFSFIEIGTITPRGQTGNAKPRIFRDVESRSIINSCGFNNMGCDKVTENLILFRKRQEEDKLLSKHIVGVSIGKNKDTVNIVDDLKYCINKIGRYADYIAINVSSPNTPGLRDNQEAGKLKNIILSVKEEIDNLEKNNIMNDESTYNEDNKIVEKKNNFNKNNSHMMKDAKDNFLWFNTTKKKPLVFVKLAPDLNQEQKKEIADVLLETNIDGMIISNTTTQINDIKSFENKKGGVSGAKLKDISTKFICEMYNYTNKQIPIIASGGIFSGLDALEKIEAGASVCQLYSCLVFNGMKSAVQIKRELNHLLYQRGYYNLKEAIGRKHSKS
Description: Inhibition of Plasmodium falciparum C-terminal hexa-His tagged DHODH expressed in Escherichia coli by DCIP reduction assay

Mus musculus [7] = experiment: Time plasma concentration remained above 1 uM in Swiss outbred mouse plasma at 20 mg/kg, po; assay type: ADME, organism-based; design: dose 20 mg/kg, route oral; settings: in vivo
[8] = Cmax in Swiss outbred mouse at 20 mg/kg, po; assay type: ADME, organism-based; design: dose 20 mg/kg, route oral; settings: in vivo
[9] = AUC (0 to infinity) in Swiss outbred mouse plasma at 20 mg/kg, po; assay type: ADME, organism-based; design: time infinity, dose 20 mg/kg, route oral
[10] = Terminal elimination half life in Swiss outbred mouse at 20 mg/kg, po; assay type: ADME, organism-based; design: dose 20 mg/kg, route oral; settings: in vivo, read-out: beta t1/2 (converted)
in vivo [11] = settings: Swiss outbred, mouse, po, 20 mg/kg
in vivo [12] = settings: Swiss outbred, mouse, po, 10 mg/kg
[13] = AUC (0 to infinity) in Swiss outbred mouse plasma at 10 mg/kg, po; assay type: ADME, organism-based; design: time infinity, dose 10 mg/kg, route oral
[14] = Terminal elimination half life in Swiss outbred mouse at 10 mg/kg, po; assay type: ADME, organism-based; design: dose 10 mg/kg, route oral; settings: in vivo, read-out: beta t1/2 (converted)
Mus musculus [15] = experiment: Time plasma concentration remained above 1 uM in Swiss outbred mouse plasma at 10 mg/kg, po; assay type: ADME, organism-based; design: dose 10 mg/kg, route oral; settings: in vivo
[16] = Cmax in Swiss outbred mouse at 10 mg/kg, po; assay type: ADME, organism-based; design: dose 10 mg/kg, route oral; settings: in vivo
Plasmodium falciparum [17] = experiment: Antimalarial activity against Plasmodium falciparum 3D7 0087/N9 infected in human RBC engrafted NOD-SCID IL-2Rgamma-null mouse assessed as reduction in parasitemia administered orally 3 days post infection qd for 4 days measured 24 hrs after final dose by FACS analysis; assay type: functional; settings: 3D7 0087/N9, po

## Cc1cc(Nc2ccc(S(F)(F)(F)(F)F)cc2)n2nc(C3CC3)nc2n1
Plasma
  PPB: 97.7%
Plasmodium falciparum [1]
  EC50: 500 nM
[2]
  logD: 3.5
[3]
  IC50: 2000 nM
Liver
  Intrinsic clearance: 12.6 µL/min/mg
[4]
  IC50: > 100000 nM
[5]
  solubility: 16 µM (≈ 6.26 µg/mL)
Liver microsomes
  Intrinsic clearance: < 5 µL/min/mg

## Cc1cc(Nc2ccc(C(F)(F)F)cc2)n2nc(C3CC3)nc2n1
[6]
  IC50: 140 nM
Plasma
  PPB: 92.8%
Plasmodium falciparum [1]
  EC50: 150 nM
[2]
  logD: 3.3
[3]
  IC50: 2600 nM
Liver
  Intrinsic clearance: 8.6 µL/min/mg
[4]
  IC50: > 100000 nM
[5]
  solubility: 38 µM (≈ 12.7 µg/mL)
Liver microsomes
  Intrinsic clearance: < 5 µL/min/mg

## CCOc1nc2nc(C)cc(Nc3ccc(C(F)(F)F)cc3)n2n1
Mus musculus [7]
  Time: 6 h
[6]
  IC50: 56 nM
Plasma
  PPB: 92.4%
Plasmodium falciparum [1]
  EC50: 58 nM
[8]
  Cmax: 5.8 µM
[2]
  logD: 3.1
[9]
  AUC(0-inf): 20.7 µM·h
[3]
  IC50: 2700 nM
Liver
  Intrinsic clearance: 14.4 µL/min/mg
[4]
  IC50: > 100000 nM
[10]
  half-life: 1.4 h
In vivo [11]
  Tmax: 1 h
[5]
  solubility: 19 µM (≈ 6.41 µg/mL)
Liver microsomes
  Intrinsic clearance: 7 µL/min/mg

## CCC(F)(F)c1nc2nc(C)cc(Nc3ccc(C(F)(F)F)cc3)n2n1
[6]
  IC50: 19 nM
Plasma
  PPB: 93.2%
In vivo [12]
  Tmax: 0.5 h
Plasmodium falciparum [1]
  EC50: 45 nM
[2]
  logD: 3.6
[13]
  AUC(0-inf): 10.9 µM·h
[14]
  half-life: 3.1 h
[3]
  IC50: 2500 nM
Liver
  Intrinsic clearance: 6.5 µL/min/mg
[4]
  IC50: > 100000 nM
Mus musculus [15]
  Time: 4 h
[5]
  solubility: 17 µM (≈ 6.31 µg/mL)
[16]
  Cmax: 3.5 µM
Liver microsomes
  Intrinsic clearance: < 5 µL/min/mg

## CSc1nc2nc(C)cc(Nc3ccc(S(F)(F)(F)(F)F)cc3)n2n1
[6]
  IC50: 30 nM
Plasma
  PPB: 97.7%
Plasmodium falciparum [1]
  EC50: 32 nM
[2]
  logD: 3.5
[3]
  IC50: > 10000 nM
Liver
  Intrinsic clearance: 107.5 µL/min/mg
[5]
  solubility: 7.8 µM (≈ 3.1 µg/mL)
Liver microsomes
  Intrinsic clearance: 22.4 µL/min/mg

## COCc1nc2nc(C)cc(Nc3ccc(C(F)(F)F)cc3)n2n1
[6]
  IC50: 410 nM
Plasma
  PPB: 75.6%
Plasmodium falciparum [1]
  EC50: 1000 nM
[2]
  logD: 2.5
[3]
  IC50: 5500 nM
Liver
  Intrinsic clearance: 13.3 µL/min/mg
[5]
  solubility: 150 µM (≈ 50.6 µg/mL)
Liver microsomes
  Intrinsic clearance: 6.7 µL/min/mg

## Cc1cc(Nc2ccc(Cl)cc2)n2nc(C(C)(F)F)nc2n1
[6]
  IC50: 38 nM
Plasma
  PPB: 87.9%
Plasmodium falciparum [1]
  EC50: 50 nM
[2]
  logD: 3
[3]
  IC50: 1700 nM
Liver
  Intrinsic clearance: 62.8 µL/min/mg
[4]
  IC50: > 100000 nM
[5]
  solubility: 77 µM (≈ 24.9 µg/mL)
Liver microsomes
  Intrinsic clearance: 16 µL/min/mg

## COCCc1nc2nc(C)cc(Nc3ccc(C(F)(F)F)cc3)n2n1
[6]
  IC50: 2500 nM
Plasma
  PPB: 73.7%
Plasmodium falciparum [1]
  EC50: 4200 nM
[2]
  logD: 2.7
Liver
  Intrinsic clearance: 14.3 µL/min/mg
[5]
  solubility: 71 µM (≈ 24.9 µg/mL)
Liver microsomes
  Intrinsic clearance: 9 µL/min/mg

## C[C@H]1[C@H](OC(=O)CCC(=O)O)O[C@@H]2O[C@@]3(C)CC[C@H]4[C@H](C)CC[C@@H]1[C@@]24OO3 [ARTESUNATE]
Plasmodium falciparum [17]
  ED90: 12.7 mg/kg

## CCc1nc2nc(C)cc(Nc3cccc(Cl)c3)n2n1
[6]
  IC50: 240 nM
Plasma
  PPB: 86.7%
Plasmodium falciparum [1]
  EC50: 3300 nM
[2]
  logD: 2.8
Liver
  Intrinsic clearance: 125.4 µL/min/mg
[5]
  solubility: 170 µM (≈ 48.9 µg/mL)
Liver microsomes
  Intrinsic clearance: 78.3 µL/min/mg

## COCCc1nc2nc(C)cc(Nc3ccc(S(F)(F)(F)(F)F)cc3)n2n1
[6]
  IC50: 2500 nM
Plasma
  PPB: 87.7%
Plasmodium falciparum [1]
  EC50: 5000 nM
[2]
  logD: 3
Liver
  Intrinsic clearance: 14.1 µL/min/mg
[5]
  solubility: 31 µM (≈ 12.7 µg/mL)
Liver microsomes
  Intrinsic clearance: 11.5 µL/min/mg

## Cc1cc(Nc2ccc(Cl)cc2)n2nc(C(C)C)nc2n1
[6]
  IC50: 330 nM
Plasma
  PPB: 84.9%
Plasmodium falciparum [1]
  EC50: 850 nM
[2]
  logD: 3.2
[3]
  IC50: 2100 nM
Liver
  Intrinsic clearance: 157.7 µL/min/mg
[5]
  solubility: 83 µM (≈ 25 µg/mL)
Liver microsomes
  Intrinsic clearance: 14.1 µL/min/mg

## Cc1cc(Nc2ccc(C(F)(F)F)cc2)n2nc(CCO)nc2n1
[6]
  IC50: 930 nM
Plasma
  PPB: 67%
Plasmodium falciparum [1]
  EC50: 480 nM
[2]
  logD: 2.2
Liver
  Intrinsic clearance: 6.9 µL/min/mg
[5]
  solubility: 19 µM (≈ 6.41 µg/mL)
Liver microsomes
  Intrinsic clearance: < 5 µL/min/mg

## CCc1nc2nc(C)cc(Nc3ccc(S(F)(F)(F)(F)F)cc3)n2n1
Plasma
  PPB: 96.4%
Plasmodium falciparum [1]
  EC50: 100 nM
[2]
  logD: 3.3
[3]
  IC50: 1400 nM
Liver
  Intrinsic clearance: 16.7 µL/min/mg
[4]
  IC50: > 100000 nM
[5]
  solubility: 34 µM (≈ 12.9 µg/mL)
Liver microsomes
  Intrinsic clearance: < 5 µL/min/mg

## CCN(CC)CCCC(C)Nc1ccnc2cc(Cl)ccc12 (centres undefined) [CHLOROQUINE]
Plasmodium falciparum [17]
  ED50: 3.2 mg/kg
  ED90: 4.9 mg/kg

## CCC(F)(F)c1nc2nc(C)cc(Nc3ccc(S(F)(F)(F)(F)F)cc3)n2n1
Plasma
  PPB: 97.7%
Plasmodium falciparum [1]
  EC50: 550 nM
[2]
  logD: 3.9
[3]
  IC50: 4700 nM
Liver
  Intrinsic clearance: 6.7 µL/min/mg
[4]
  IC50: > 100000 nM
[5]
  solubility: 15 µM (≈ 6.44 µg/mL)
Liver microsomes
  Intrinsic clearance: < 5 µL/min/mg

## CCc1nc2nc(C)cc(Nc3ccc(Cl)cc3)n2n1
[6]
  IC50: 280 nM
Plasma
  PPB: 86.1%
Plasmodium falciparum [1]
  EC50: 790 nM
[2]
  logD: 2.8
[3]
  IC50: 2300 nM
Liver
  Intrinsic clearance: 63.1 µL/min/mg
[5]
  solubility: 170 µM (≈ 48.9 µg/mL)
Liver microsomes
  Intrinsic clearance: 12.8 µL/min/mg

## CSc1nc2nc(C)cc(Nc3ccc(C(F)(F)F)cc3)n2n1
[6]
  IC50: 36 nM
Plasma
  PPB: 91.8%
Plasmodium falciparum [1]
  EC50: 8.4 nM
[2]
  logD: 3.2
[3]
  IC50: 4800 nM
Liver
  Intrinsic clearance: 76.9 µL/min/mg
[5]
  solubility: 19 µM (≈ 6.45 µg/mL)
Liver microsomes
  Intrinsic clearance: 18.7 µL/min/mg

## COCc1nc2nc(C)cc(Nc3ccc(S(F)(F)(F)(F)F)cc3)n2n1
[6]
  IC50: 390 nM
Plasma
  PPB: 91.7%
Plasmodium falciparum [1]
  EC50: 2100 nM
[2]
  logD: 2.8
[3]
  IC50: 3300 nM
Liver
  Intrinsic clearance: 14.3 µL/min/mg
[5]
  solubility: 63 µM (≈ 24.9 µg/mL)
Liver microsomes
  Intrinsic clearance: 5.6 µL/min/mg
